Patent US20090247579A1, “2-[3H-THIAZOL-2-YLIDINEMETHYL]PYRIDINES AND RELATED COMPOUNDS AND THEIR USE” (CANCER RESEARCH TECHNOLOGY LIMITED, priority 2006, published 2009)
“And” between values parts separate entries of the source, which are not always exact repeats. Equal entries are not always repeated. Where two headings read alike, the source gives them in different places.

How the values were obtained:
H125 = assay: Cancer cell line panel, H125 (NSCLC); type: cell-based
Procedure: (§1) Relative drug sensitivities (Resistance Factor) and IC50 values were determined by a modified MTT assay (see, e.g., Mosmann, 1983; Plumb et al., 1989), as described below: • (1) Trypsinise a sub-confluent monolayer culture and collect cells in growth medium containing serum. Centrifuge the suspension (200 g, 5 minutes) to pellet cells, re-suspend in growth medium, and count cells. Dilute cells to a density of 5×10^3 cells/mL allowing 60 mL of cell suspension for 3 microtitre plates. Transfer cell suspension to a 10 cm petri dish, and with a multichannel pipette add 200 μL to each well of the central 10 columns of a flat bottomed 96-well plate (80 wells per plate) starting with column 2 and ending with column 11. Add 200 μL of growth medium to the 8 wells in columns 1 and 12. […] Glycine buffer is added (25 μL per well) to all wells containing DMSO. • (8) Absorbance is recorded at 570 nm with the wells in column 1, which contained medium and MTT but no cells used as a blank. • (9) A graph is plotted of absorbance (y-axis) against drug concentration (x-axis). The mean absorbance reading from the wells in columns 2 and 11 is used as the control absorbance and the IC50 concentration is determined as the drug concentration required to reduce the absorbance to half that of the control. IC10 or IC90 values can be determined in the same manner. […]

A2780/cp70 = assay: Modified MTT assay, A2780/cp70 (cisplatin resistant, MMR deficient); type: cell-based, human; settings: 24 hour drug exposure; for IC50: MTT; for A2780/cp70 RF (Resistance Factor): fold difference in resistance from parental A2780
Procedure: (§2) Relative drug sensitivities (Resistance Factor) and IC50 values were determined by a modified MTT assay (see, e.g., Mosmann, 1983; Plumb et al., 1989), as described below: • (1) Trypsinise a sub-confluent monolayer culture and collect cells in growth medium containing serum. Centrifuge the suspension (200 g, 5 minutes) to pellet cells, re-suspend in growth medium, and count cells. Dilute cells to a density of 5×10^3 cells/mL allowing 60 mL of cell suspension for 3 microtitre plates. Transfer cell suspension to a 10 cm petri dish, and with a multichannel pipette add 200 μL to each well of the central 10 columns of a flat bottomed 96-well plate (80 wells per plate) starting with column 2 and ending with column 11. Add 200 μL of growth medium to the 8 wells in columns 1 and 12. Put the plates in a plastic box and incubate in a humidified atmosphere at 37° C. for 2-3 days so that cells are in the exponential phase of growth for drug addition. • (2) Prepare a serial 5-fold dilution of the cytotoxic drug in growth medium to give 8 concentrations. Pipette 6 mL of growth medium in to each of 7 universal containers (30 mL). Prepare 10 mL of the highest concentration of the drug and transfer 1.5 mL of this solution to the first universal container. Mix and then transfer 1.5 mL to the next universal container. Continue until the seventh universal container is reached. The concentrations should be chosen so that the highest concentration kills most of the cells and the lowest kills none of the cells. Normally, three plates are used for each drug to give triplicate determinations within one experiment. • (3) The medium is removed from all the wells in columns 2 to 11. This can be achieved with a hypodermic needle attached to a suction line. Cells in the 8 wells in columns 2 and 11 are fed with 200 μL of fresh growth medium. The drug solutions are transferred to 10 cm petri dishes and 200 μL added to all 8 wells of a column. For ease of analysis arrange the drug solutions in order so that the highest is in column 3 down to the lowest in column 10. Plates are returned to the plastic box and incubated for 24 hours. • (4) At the end of the drug exposure period, the medium is removed from all wells containing cells and the cells are fed with 200 μL of fresh medium. • (5) The plates are fed daily for two more days. • (6) The plates are fed with 200 μL of fresh medium and 50 μL of the MTT solution (5 mg/mL in PBS) is added to all wells in columns 1 to 11. Plates are wrapped in aluminium foil and incubated for 4 hours in a humidified atmosphere at 37° C. • (7) The medium and MTT are then removed from the wells and the purple MTT-formazan crystals dissolved by addition of 200 μL of DMSO to all wells in columns 1 to 11. Glycine buffer is added (25 μL per well) to all wells containing DMSO. • (8) Absorbance is recorded at 570 nm with the wells in column 1, which contained medium and MTT but no cells used as a blank. • (9) A graph is plotted of absorbance (y-axis) against drug concentration (x-axis). The mean absorbance reading from the wells in columns 2 and 11 is used as the control absorbance and the IC50 concentration is determined as the drug concentration required to reduce the absorbance to half that of the control. IC10 or IC90 values can be determined in the same manner.
(§3) A2780/cp70 and A2780/mcp1 have lost expression of MLH1, have lost MMR activity, and have microsatellite instability compared to A2780. The CpG island at the MLH1 gene is methylated in A2780/cp70 and A2780/mcp1, but not A2780.
(§4) IC50 values (μM) for A2780, A2780/cp70, and A2780/mcp1 and Resistance Factors (RF) (the fold difference in resistance from parental A2780) were determined based on the MTT assay described above for several compounds of the present invention (including, e.g., MMR201).

LDAN = assay: Cancer cell line panel, LDAN (NSCLC); type: cell-based
Procedure: as §1

HCT116 (MLH1) = assay: Modified MTT assay, colon panel HCT116; type: cell-based, human
Procedure: as §1

DLD1 (MSH6) = assay: Modified MTT assay, colon panel DLD1; type: cell-based
Procedure: as §1

A2780 = assay: Modified MTT assay, A2780 (parental, MMR proficient); type: cell-based, human
Procedure: as §2, §3, §4

HT29 = assay: Modified MTT assay, colon panel HT29; type: cell-based
Procedure: as §1

A2780/mcp1 = assay: Modified MTT assay, A2780/mcp1 (cisplatin resistant, MMR deficient); type: cell-based, human; settings: 24 hour drug exposure; for IC50: MTT; for A2780/mcp1 RF (Resistance Factor): fold difference in resistance from parental A2780
Procedure: as §2, §3, §4

T84 = assay: Modified MTT assay, colon panel T84; type: cell-based
Procedure: as §1

OVCAR3 = assay: Cancer cell line panel, OVCAR3 (ovary); type: cell-based
Procedure: as §1

HS294 = assay: Cancer cell line panel, HS294 (melanoma); type: cell-based
Procedure: as §1

WIL = assay: Cancer cell line panel, WIL (NSCLC); type: cell-based
Procedure: as §1

A375 = assay: Cancer cell line panel, A375 (melanoma); type: cell-based
Procedure: as §1

Question: For `N.N.[Cl][Pt][Cl]` [Cisplatin, reference compound], which IC50 (H125; read-out: Cisplatin) is on record?
Answer: Its IC50 is 3690 ± 430 nM.

Question: What about the IC50 (A2780/cp70) of the same molecule?
Answer: The IC50 was 1740 nM and 1680 nM.

Question: And the “A2780/cp70 RF (Resistance Factor)” value (A2780/cp70)?
Answer: The value was 8.1 and 6.9.

Question: What about the IC50 (LDAN; read-out: Cisplatin) of the same molecule?
Answer: Its IC50 is 1230 ± 70 nM.

Question: And the IC50 (HCT116 (MLH1); read-out: Cisplatin IC50, MMR deficient, p53 wt)?
Answer: Its IC50 is 2130 ± 30 nM.

Question: What about the IC50 (DLD1 (MSH6); read-out: Cisplatin IC50, MMR deficient, p53 mut) of the same molecule?
Answer: Its IC50 is 1670 ± 30 nM.

Question: What about the IC50 (A2780; 24 hour drug exposure) of the same molecule?
Answer: Its IC50 is 215 nM and 244 nM.

Question: What about the IC50 (HT29; read-out: Cisplatin IC50, MMR proficient, p53 mut) of the same molecule?
Answer: Its IC50 is 5670 ± 640 nM.

Question: And the IC50 (A2780/mcp1)?
Answer: Its IC50 is 547 nM and 672 nM.

Question: And the “A2780/mcp1 RF (Resistance Factor)” value (A2780/mcp1)?
Answer: The value was 2.5 and 2.8.

Question: What about the IC50 (T84; read-out: Cisplatin IC50, MMR proficient, p53 ?) of the same molecule?
Answer: The IC50 was 4230 ± 860 nM.

Question: And the IC50 (OVCAR3; read-out: Cisplatin)?
Answer: Its IC50 is 239 ± 20 nM.

Question: What about the IC50 (HS294; read-out: Cisplatin) of the same molecule?
Answer: Its IC50 is 1490 ± 80 nM.

Question: What about the IC50 (WIL; read-out: Cisplatin) of the same molecule?
Answer: The IC50 was 3940 ± 220 nM.

Question: And the IC50 (A375; read-out: Cisplatin)?
Answer: Its IC50 is 613 ± 51 nM.

Question: `CC[n+]1c(/C=C2\Sc3oc4ccccc4c3N2C)ccc2cc(C)ccc21.[I-]` [MMR201] was tested. Which IC50 (H125; Homo sapiens, NCI-H125, read-out: MMR201) did it give?
Answer: The IC50 was 130 ± 15 nM.

Question: And the IC50 (A2780/cp70; Homo sapiens, A2780/CP70)?
Answer: The IC50 was 17 ± 1 nM.

Question: What about the “A2780/cp70 RF (Resistance Factor)” value (A2780/cp70) of the same molecule?
Answer: The value was 0.29.

Question: And the IC50 (LDAN; read-out: MMR201)?
Answer: Its IC50 is 114.4 ± 0.07 nM.

Question: What about the IC50 (HCT116 (MLH1); Homo sapiens, HCT-116, MMR deficient, p53 wt, read-out: MMR201 IC50) of the same molecule?
Answer: Its IC50 is 37.9 ± 3.1 nM.

Question: What about the IC50 (DLD1 (MSH6); Homo sapiens, DLD-1, MMR deficient, p53 mut, read-out: MMR201 IC50) of the same molecule?
Answer: The IC50 was 186 ± 8.3 nM.

Question: And the IC50 (A2780; Homo sapiens, A2780, 24 hour drug exposure)?
Answer: Its IC50 is 58 ± 5 nM.

Question: And the IC50 (HT29; Homo sapiens, HT-29, MMR proficient, p53 mut, read-out: MMR201 IC50)?
Answer: Its IC50 is 118 ± 9.1 nM.

Question: What about the IC50 (A2780/mcp1; Homo sapiens, A2780/mcp1) of the same molecule?
Answer: Its IC50 is 14 ± 1 nM.

Question: And the “A2780/mcp1 RF (Resistance Factor)” value (A2780/mcp1)?
Answer: Its value is 0.24.

Question: And the IC50 (T84; Homo sapiens, MMR proficient, p53 ?, read-out: MMR201 IC50)?
Answer: Its IC50 is 1470 ± 175 nM.

Question: What about the IC50 (OVCAR3; Homo sapiens, OVCAR-3, read-out: MMR201) of the same molecule?
Answer: Its IC50 is 253 ± 22 nM.

Question: And the IC50 (HS294; read-out: MMR201)?
Answer: The IC50 was 105 ± 5.1 nM.

Question: And the IC50 (WIL; read-out: MMR201)?
Answer: The IC50 was 153 ± 13.7 nM.

Question: What about the IC50 (A375; Homo sapiens, A-375, read-out: MMR201) of the same molecule?
Answer: The IC50 was 118 ± 17.7 nM.
